Results from patent US8829016B2, “Triazole compounds as potential anti-inflammatory agents” (King Saud University, priority 2011, dated 2014).

How the values were obtained:
[1] = tested on: carrageenan-induced rat paw edema; assay: In vivo carrageenan induced rat paw edema assay; set-up: species or system rat (male Sprague-Dawley); details: compound intravenously in DMSO one hour before carrageenan, vs vehicle control = 0%
Procedure: (§1) Anti-inflammatory activity was determined by the carrageenan-induced rat paw edema method described by Winter et al., Proc. Soc. Exp. Biol. Med. 1962, 111, 544, using male Sprague-Dawley rats weighing 150 to 200 g (6-8 weeks old). The protocol for the animal experiments performed was approved by the Research Ethics Committee and Animal Care and Use Committee, Govt. of Saudi Arabia. Compounds were administered intravenously in dimethyl sulfoxide solution. Paw edema was induced by intradermal injection of 50 μ. of 1% λ-carrageenan (Sigma, USA) into the subplantar region of the right hind paw, after one hour of compound administration. […] The control group received only the vehicle. Increase in paw volume was compared with that in the control group and percent inhibition was calculated taking the values in the control group as 0% inhibition.
In Vivo Carrageenan Induced Rat Paw Edema Assay
as §1, with “(Winter” for “Winter”, “al.” for “al.,”, “544). Male” for “544, using male”, “old) were used in groups of six animals per group for the experiments. The animals were housed in a room with temperature of 22±2° C. under a 12 h light/dark cycle. They were allowed free access to food and water ad libitum.” for “old).”, “μl” for “μ.”, “X-carrageenan” for “λ-carrageenan”

ovine COX-2 = biological target: T1, ovine COX-2 (Ovis aries, UniProt P79208); assay: In vitro COX inhibition assay, colorimetric COX (ovine) inhibitor screening kit, COX-2; assay type: biochemical; details: for IC50: ovine COX-2, colorimetric kit; for Selectivity index (COX-1/COX-2): ratio of IC50 COX-1 / IC50 COX-2
T1 construct: purchased Cayman Chemicals, USA
T1 sequence (P79208 17-603): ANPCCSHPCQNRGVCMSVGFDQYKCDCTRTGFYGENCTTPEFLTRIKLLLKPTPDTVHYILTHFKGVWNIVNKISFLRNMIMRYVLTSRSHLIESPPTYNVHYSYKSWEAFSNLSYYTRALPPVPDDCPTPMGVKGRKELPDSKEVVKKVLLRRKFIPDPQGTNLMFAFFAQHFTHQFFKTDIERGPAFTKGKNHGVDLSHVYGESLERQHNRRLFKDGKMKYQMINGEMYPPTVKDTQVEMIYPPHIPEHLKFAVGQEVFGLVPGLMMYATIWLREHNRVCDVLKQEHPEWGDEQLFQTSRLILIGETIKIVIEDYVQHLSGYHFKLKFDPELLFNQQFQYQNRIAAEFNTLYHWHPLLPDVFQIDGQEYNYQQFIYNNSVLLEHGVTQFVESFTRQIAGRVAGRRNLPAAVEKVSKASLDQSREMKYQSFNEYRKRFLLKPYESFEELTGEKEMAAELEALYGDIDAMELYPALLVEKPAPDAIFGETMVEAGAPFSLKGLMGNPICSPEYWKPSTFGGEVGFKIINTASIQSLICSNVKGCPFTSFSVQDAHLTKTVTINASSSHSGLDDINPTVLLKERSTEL
Procedure: (§2) Inhibition of the enzymes was determined with the colorimetric COX (ovine) inhibitor screening assay.
(§3) In Vitro COX Inhibition Assay
(§4) The final compounds were evaluated for their ability to inhibit ovine COX-1 and COX-2 enzymes [50% percent inhibition is expressed in molar concentration […]] […] Inhibition of the enzymes was determined with the colorimetric COX (ovine) inhibitor screening assay kit (Cayman Chemicals, USA) using ELISA reader.

ovine COX-1 = biological target: T2, ovine COX-1 (Ovis aries, UniProt P05979); assay: In vitro COX inhibition assay, colorimetric COX (ovine) inhibitor screening kit, COX-1; assay type: biochemical; details: ovine COX-1, colorimetric kit
T2 construct: purchased Cayman Chemicals, USA
T2 sequence (P05979 25-600): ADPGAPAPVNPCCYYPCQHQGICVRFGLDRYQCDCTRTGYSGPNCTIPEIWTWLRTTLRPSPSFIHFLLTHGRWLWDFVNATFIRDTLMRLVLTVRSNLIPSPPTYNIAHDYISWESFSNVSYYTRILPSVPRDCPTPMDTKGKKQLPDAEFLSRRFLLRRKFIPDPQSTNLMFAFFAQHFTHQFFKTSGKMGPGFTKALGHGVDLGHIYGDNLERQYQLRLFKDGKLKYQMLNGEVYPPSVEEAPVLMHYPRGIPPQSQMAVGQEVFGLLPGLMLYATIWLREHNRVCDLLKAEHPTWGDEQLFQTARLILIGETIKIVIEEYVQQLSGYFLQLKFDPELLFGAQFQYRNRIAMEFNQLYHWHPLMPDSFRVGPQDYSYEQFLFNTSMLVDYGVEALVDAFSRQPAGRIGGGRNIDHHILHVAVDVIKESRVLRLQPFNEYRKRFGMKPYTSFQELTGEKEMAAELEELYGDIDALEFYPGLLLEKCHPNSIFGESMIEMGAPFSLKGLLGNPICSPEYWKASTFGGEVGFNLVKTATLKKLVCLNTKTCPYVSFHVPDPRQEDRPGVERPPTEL
Procedure: as §2, §3, §4

| Compound | AI activity % inhibition at 1 hr (carrageenan paw edema) [1] | AI activity % inhibition at 2 hr (carrageenan paw edema) [1] | melting point | IC50 (ovine COX-2) | Selectivity index (COX-1/COX-2) (ovine COX-2) | IC50 (ovine COX-1) |
| --- | --- | --- | --- | --- | --- | --- |
| Cc1ccc(-c2cc(C(F)(F)F)nn2-c2ccc(S(N)(=O)=O)cc2)cc1 [Celecoxib, reference compound] | 50 ± 2.1% | 71.5 ± 3.7% | – | – | – | – |
| C#CCSC1NN=C(c2ccncc2)N1c1ccccc1 (stereo not drawn) [Compound 3, 4-Phenyl-3-(prop-2-ynylthio)-5-pyridine-4-yl-2,4-dihydro-3H-1,2,4-triazole] | – | – | 151 to 152 °C | – | – | – |
| C#CCSc1nnc(-c2ccncc2)n1-c1ccccc1 [Compound 3, 4-Phenyl-3-(prop-2-ynylthio)-5-pyridine-4-yl-2,4-dihydro-3H-1,2,4-triazole] | 10 ± 5.4% | 12 ± 4.9% | – | 5.3 nM | 1.42 | 7.5 nM |
| CCCC(C)SC1NN=C(c2ccncc2)N1c1ccccc1 (stereo not drawn) [Compound 4, 3-[(Pent-2-yl)thio]-4-phenyl-5-pyridine-4-yl-2,4-dihydro-3H-1,2,4-triazole] | – | – | 96 to 97 °C | – | – | – |
| CCCC(C)Sc1nnc(-c2ccncc2)n1-c1ccccc1 (stereo not drawn) [Compound 4, 3-[(Pent-2-yl)thio]-4-phenyl-5-pyridine-4-yl-2,4-dihydro-3H-1,2,4-triazole] | 36 ± 2.1% | 50 ± 2.5% | – | 1.4 nM | 2.64 | 3.7 nM |
| C=CCCCSC1NN=C(c2ccncc2)N1c1ccccc1 (stereo not drawn) [Compound 5] | – | – | 132 to 133 °C | – | – | – |
| C=CCCCSc1nnc(-c2ccncc2)n1-c1ccccc1 [Compound 5] | 9 ± 1.3% | 38 ± 1.8% | – | 2.6 nM | 1.69 | 4.4 nM |
| CCOC(=O)n1nc(-c2ccncc2)n(-c2ccccc2)c1=S [Compound 6, Ethyl[4-phenyl-5-pyridine-4-yl-3-thioxo-2,4-dihydro-3H-1,2,4-triazole-2-yl]carboxylate] | 0.0% | 5 ± 1.8% | 231 to 232 °C | 7.8 nM | 1.18 | 9.2 nM |
| OCn1nc(-c2ccncc2)n(-c2ccccc2)c1=S [Compound 7, 2-Hydroxymethyl-4-phenyl-5-pyridine-4-yl-2,4-dihydro-3H-1,2,4-triazole-3-thione] | 25 ± 1.8% | 66 ± 2.6% | 277 to 278 °C | 0.8 nM | 4.38 | 3.5 nM |
| CN(C)Cn1nc(-c2ccncc2)n(-c2ccccc2)c1=S [Compound 8, 2-Dimethylaminomethyl-4-phenyl-5-pyridine-4-yl-2,4-dihydro-3H-1,2,4-triazole-3-thione] | 51 ± 1.5% | 76 ± 2.8% | 173 to 174 °C | 0.9 nM | 3.44 | 3.1 nM |
| CCN(CC)Cn1nc(-c2ccncc2)n(-c2ccccc2)c1=S [Compound 9, 2-Diethylaminomethyl-4-phenyl-5-pyridine-4-yl-2,4-dihydro-3H-1,2,4-triazole-3-thione] | 45 ± 1.1% | 66 ± 1.2% | 216 to 217 °C | 1.1 nM | 3.46 | 3.8 nM |
| S=c1n(CN2CCCC2)nc(-c2ccncc2)n1-c1ccccc1 [Compound 10, 4-Phenyl-5-pyridine-4-yl-2-pyrrolidinylmethyl-2,4-dihydro-3H-1,2,4-triazole-3-thione] | 62 ± 3.4% | 66 ± 1.5% | – | 0.9 nM | 4.11 | 3.7 nM |
| CN(CCO)Cn1nc(-c2ccncc2)n(-c2ccccc2)c1=S [Compound 11, N-Methyl-N-[(4-phenyl-5-pyridine-4-yl-3-thioxo-2,4-dihydro-3H-1,2,4-triazol-2-y)methyl]-2-aminoethanol] | Zero | 16 ± 5.9% | 173 to 174 °C | 2.1 nM | 2.14 | 4.5 nM |
| S=c1n(CNc2ccc(Br)cc2)nc(-c2ccncc2)n1-c1ccccc1 [Compound 12, 2-[(4-Bromophenylamino)methyl]-4-phenyl-5-pyridine-4-yl-2,4-dihydro-3H-1,2,4-triazole-3-thione] | 12.5 ± 1.6% | 29 ± 3.8% | 208 to 209 °C | 3.9 nM | 1.64 | 6.4 nM |
| S=c1n(CNCc2ccc(Cl)cc2)nc(-c2ccncc2)n1-c1ccccc1 [Compound 13, 2-[(4-Chlorobenzylamino)methyl]-4-phenyl-5-pyridine-4-yl-2,4-dihydro-3H-1,2,4-triazole-3-thione] | 16 ± 5.7% | 19 ± 6.3% | – | 6.8 nM | 1.38 | 8.7 nM |
